{
  "source": "patent US20240307427A1",
  "about": "(priority 2023, published 2024)",
  "key": {"SARS-COV-2": {"tested_on": "SARS-COV-2", "details": "in vitro, human precision-cut lung slices; cited from earlier work"}, "[1]": {"assay": "Equilibrium solubility measurement in organic solvents", "format": "physicochemical", "details": "25 °C, organic solvent or mixture, thermodynamic from solid", "procedure": "10 μL samples were injected onto the column.\nSamples were filtered through 0.45 μm membrane filters, followed by dilution to appropriate concentrations for the HPLC assay."}, "[2]": {"details": "deposited dose 0.35 mg/kg by inhalation vs 10 mg/kg intravenous, African green monkeys; cited from earlier work"}, "A549 cells": {"tested_on": "A549 cells", "assay": "MTT cell viability assay", "details": "24 hours, 0.05 to 10 μM", "procedure": "A549 cells were cultured in DMEM/F12 medium supplemented with 10% (v/v) FBS and 1% (v/v) antibiotic-antimycotic at 37° C. in a humidified incubator with 5% CO2. On the day prior to treatment addition, approximately 2×10^4 cells/well were seeded into 96-well plates and incubated overnight. […] Upon the treatment, the cells were incubated with 200 μL of MTT reagent (0.8 mg/mL) for 3 hours at 37° C. 100 μL of isopropyl alcohol was then added to each well to solubilize the formazan dye crystals and the absorbance at 570 nm was measured using a microplate spectrophotometer (Thermo Scientific™ Multiskan™ GO, Thermo-Fisher, Waltham, MA, USA). Cell viability (%) was calculated by dividing the absorbance of treated cells by the absorbance of cells from the control group with equivalent concentration of DMSO as the treatment group. Six replicates were made for each concentration and the whole MTT assay was repeated in triplicate."}, "[3]": {"details": "intravenous doses, healthy subjects, cited from earlier work"}, "[4]": {"details": "cited from earlier work"}, "[5]": {"assay": "In-vitro drug release study in pH 7.4 simulated lung fluid", "format": "physicochemical", "details": "20 mL pH 7.4 SLF3, 37° C., 75 rpm, LAG cocrystal <63 μm, n=3"}, "[6]": {"assay": "pH determination during dissolution in simulated lung fluid", "format": "physicochemical", "details": "equimolar amount (0.017 mol) in 20 mL SLF, initial pH 7.4, 37° C.", "procedure": "The solution containing the samples was stirred at 75 rpm with a magnetic bar at 37° C., followed by in situ pH measurement at designated time points, i.e., 2 s, 5 s, 10 s, 15 s, 30 s, 45 s, 1 min, 1.5 min, 2 min, 3 min, 5 min, and 10 min, using a pH meter (Lab 850, Schott Instruments, United Kingdom)."}},
  "note": "Like-named read-outs stand apart in the source and are kept apart here.",
  "data": [
    {"compound": "CC(=O)Oc1ccccc1C(=O)O", "note": "[ASA, acetylsalicylic acid]", "values": [
      {"measurement": "SARS-COV-2 viral replication", "setting": "SARS-COV-2", "value": "inhibit SARS-COV-2 viral replication"}
    ]},
    {"compound": "CCC(CC)COC(=O)[C@H](C)N[P@](=O)(OC[C@H]1O[C@@](C#N)(c2ccc3c(N)ncnn23)[C@H](O)[C@@H]1O)Oc1ccccc1", "note": "[RDV, Remdesivir]", "values": [
      {"measurement": "solubility at 72 h", "setting": "[1]; Acetone", "value": "66.4 ± 5.34", "unit": "mg/mL"},
      {"measurement": "solubility at 72 h", "setting": "[1]; Acetonitrile", "value": "5.68 ± 0.6", "unit": "mg/mL"},
      {"measurement": "solubility at 72 h", "setting": "[1]; Chloroform", "value": "3.86 ± 0.3", "unit": "mg/mL"},
      {"measurement": "solubility at 72 h", "setting": "[1]; Ethanol", "value": "34.2 ± 2.29", "unit": "mg/mL"},
      {"measurement": "solubility at 72 h", "setting": "[1]; Methanol", "value": "191 ± 13.3", "unit": "mg/mL"},
      {"measurement": "lung RDV triphosphate levels, inhaled vs intravenous", "setting": "[2]", "value": "similar"},
      {"measurement": "cell viability", "setting": "A549 cells", "value": "around 100%"},
      {"measurement": "highest plasma concentration of RDV observed", "setting": "[3]", "value": 4420, "unit": "ng/mL"},
      {"measurement": "highest plasma concentration of RDV observed", "setting": "[3]; converted value", "value": "~7.8", "unit": "µM"},
      {"measurement": "aqueous solubility", "setting": "[4]; background statement", "value": "< 0.03", "unit": "mg/mL"},
      {"measurement": "solubility in water", "setting": "[4]; water at 25° C.", "value": 0.028, "unit": "mg/mL"}
    ]},
    {"compound": "CCC(CC)COC(=O)C(C)NP(=O)(OCC1OC(C#N)(c2ccc3c(N)ncnn23)C(O)C1O)Oc1ccccc1.O=C(O)c1ccccc1O", "note": "(stereo not drawn) [RDV−SA, cocrystal of remdesivir and salicylic acid]", "values": [
      {"measurement": "RDV dissolved at 120 min", "setting": "[5]", "value": 71.22, "unit": "%"},
      {"measurement": "cell viability", "setting": "A549 cells", "value": "around 100%"},
      {"measurement": "medium pH at end point of dissolution (10 min)", "setting": "[6]", "value": "7.41±0.01"}
    ]},
    {"compound": "O=C(O)c1ccccc1O", "note": "[SA, Salicylic acid]", "values": [
      {"measurement": "medium pH at end point of dissolution (10 min)", "setting": "[6]", "value": "7.35±0.03"},
      {"measurement": "medium pH in 2 seconds (transient drop)", "setting": "[6]", "value": "6.89±0.02"},
      {"measurement": "SARS-COV-2 viral replication", "setting": "SARS-COV-2", "value": "inhibit SARS-COV-2 viral replication"}
    ]}
  ]
}
